Source: patent US7566724B2, “Glycine derivative and use thereof” (Toray Industries, Inc., priority 2004, dated 2009)
Counter-ions that a name gives are not always drawn. Like-named read-outs stand apart in the source and are kept apart here.

Assays:
[1] = test system: Jurkat cells; assay: Measurement of Inhibitory Effect on Leukocyte Functions (adhesion of Jurkat cells to ligand-expressing cells or ligand-immobilized plate); format: cell-based; conditions: Homo sapiens, 0.5 h, read-out: IC50 (adhesion of Jurkat cells)
Description: Jurkat cells which are a cell line originated from human acute T cell lymphoma were allowed to react with BCECF-AM at 37° C. for 20 minutes to fluorescently label the cells. The fluorescently labelled Jurkat cells were allowed to react with ligand-expressing cells or with a ligand-immobilized plate at 37° C. for 30 minutes. After removing non-adherent cells by washing, 1% NP40 was added to lyse the adherent cells, and fluorescence intensity was measured with Cytoflow 2300 (Millipore). From the obtained fluorescence intensity, the number of adherent cells was calculated. Each test compound was reacted with the Jurkat cells before the beginning of the adhesion reaction. In Table 18, the IC50 of each compound is shown.

[2] = test system: leukotriene B4 production by neutrophils; assay: Measurement of Inhibitory Effect on Inflammatory Mediator Production by Leukocytes (ionomycin-induced leukotriene B4 in neutrophils); format: cell-based; conditions: 0.5 h, human neutrophil suspension, 37° C. 30 minutes, EIA
Description: A mixture of human peripheral blood and physiological saline containing 3% dextran was left to stand for 30 minutes and then the upper layer was recovered. The upper layer was overlaid on Histopaque 1077 (SIGMA), and the resultant was centrifuged at 1400 rpm for 30 minutes. The supernatant was removed by aspiration and a buffer was added to the precipitate to prepare a neutrophil suspension (4×10^5 cells/mL). To the neutrophil suspension, ionomycin was added and the mixture was incubated at 37° C. for 30 minutes, followed by quantification of leukotriene B4 by EIA (Amersham, Biotrak EIA system). Each test compound was added to the neutrophil suspension before adding ionomycin. In Table 19, the IC50 of each compound is shown.

[3] = Pharmacokinetic Evaluation in Rats; format: in vivo; conditions: rat, male SD rats, administered orally or intravenously, plasma up to 8 hours, LC/MS/MS; for bioavailability: oral, read-out: BA(%) (bioavailability); for clearance: read-out: CLtot (total clearance) (converted)
Description: Each compound was dissolved at a concentration of 0.5 mg/ml in PBS or in PBS containing 10% PEG. The compound was administered orally or intravenously to male SD rats (7 to 9 weeks old). Blood was collected from the tail vein at time points up to 8 hours after the administration, and blood plasma was collected by centrifugation from each obtained blood. The blood plasma was pretreated by using the solid-phase extraction method, and the concentration of the compound was analyzed with LC/MS/MS (ESI negative mode).
As the Comparative Compound, 2-[4-((3,5-dichlorobenzensulfonylamino)methyl)benzoylamino]-5-(4-(methyl-pyrimidin-2-ylamino)phenyl)pento-4-ene acid (XXI) described in WO 99/26923 was used.
[“BA” in Table 17 means bioavailability, and “CLtot” means total clearance.]

[4] = fluorescently labelled Jurkat cells, ligand-expressing cells or ligand-immobilized plate, 37° C. 30 minutes

IC50 [1, 4] | SMILES | other results
71 nM | O=C(NC(C/C=C/c1ccc(N(Cc2cccnc2)c2ncccn2)cc1)C(=O)O)c1c(Cl)cccc1Cl (stereo not drawn) [Example 39, (E)-2-(2,6-Dichlorobenzamido)-5-[4-(pyridin-3-ylmethyl-pyrimidin-2-ylamino)phenyl]pent-4-enoic acid sodium salt] | 
69 nM | COCC1(c2ccc(/C=C/CC(NC(=O)c3c(Cl)cccc3Cl)C(=O)O)cc2)CCOCC1 (stereo not drawn) [Example 8, (E)-2-(2,6-Dichlorobenzamido)-5-[4-(tetrahydro-4-(methoxymethyl)-2H-pyran-4-yl)phenyl]pent-4-enoic acid sodium salt] | 
 | O=C(NC(C/C=C/c1ccc(N(Cc2ccccc2)c2ncccn2)cc1)C(=O)O)c1c(Cl)cccc1Cl (stereo not drawn) [Example 33, (E)-5-[4-(Benzyl-pyrimidin-2-yl-amino)-phenyl]-2-(2,6-dichlorobenzamido)-pent-4-enoic acid sodium salt] | IC50 [2]: 16300 nM
110 nM | CCCN(c1ccc(/C=C/CC(NC(=O)c2c(Cl)cccc2Cl)C(=O)O)cc1)c1ncccn1 (stereo not drawn) [Example 57, (E)-2-(2,6-Dichlorobenzamido)-5-[4-(propyl-pyrimidin-2-ylamino)phenyl]pent-4-enoic acid] | 
100 nM | CCOC1(c2ccc(/C=C/CC(NC(=O)c3c(Cl)cccc3Cl)C(=O)OC)cc2)CCOCC1 (stereo not drawn) [Example 5, (E)-2-(2,6-Dichlorobenzamido)-5-[4-(4-ethoxytetrahydropyran-4-yl)-phenyl]pent-4-enoic acid methyl ester] | 
530 nM | Cc1cccc(C)c1C(=O)NC(C/C=C/c1ccc(N(C)c2ncccn2)cc1)C(=O)O (stereo not drawn) [Example 69, (E)-2-(2,6-Dimethylbenzamido)-5-[4-(methyl-pyrimidin-2-ylamino)phenyl]pent-4-enoic acid] | 
43 nM | O=C(NC(C/C=C/c1ccc(N(Cc2ccncc2)c2ncccn2)cc1)C(=O)O)c1c(Cl)cccc1Cl (stereo not drawn) [Example 59, (E)-2-(2,6-Dichlorobenzamido)-5-[4-(pyridin-4-ylmethyl-pyrimidin-2-ylamino)phenyl]pent-4-enoic acid] | 
 | CCCCN(c1ccc(/C=C/CC(NC(=O)c2c(Cl)cccc2Cl)C(=O)O)cc1)c1ncccn1 (stereo not drawn) [Example 37, (E)-5-(4-Butyl-pyrimidin-2-yl-amino)-phenyl]-2-(2,6-dichlorobenzamido)-pent-4-enoic acid sodium salt] | IC50 ([1]; Jurkat): 160 nM
41 nM | N#CCCN(c1ccc(/C=C/CC(NC(=O)c2c(Cl)cccc2Cl)C(=O)O)cc1)c1ncccn1 (stereo not drawn) [Example 31, (E)-5-[4-((2-Cyano-ethyl)-pyrimidin-2-yl-amino)-phenyl]-2-(2,6-dichlorobenzamido)-pent-4-enoic acid sodium salt] | 
950 nM | O=C(NC(C/C=C/c1ccc(N(Cc2cscn2)c2ncccn2)cc1)C(=O)O)c1c(Cl)cccc1Cl (stereo not drawn) [Example 41, (E)-2-(2,6-Dichlorobenzamido)-5-[4-(pyrimidin-2-yl-thiazol-4-ylmethyl-amino)phenyl]pent-4-enoic acid sodium salt] | 
930 nM | O=C(NC(C/C=C/c1ccc(N(c2ccccc2)c2ncccn2)cc1)C(=O)O)c1c(Cl)cccc1Cl (stereo not drawn) [Example 47, (E)-2-(2,6-Dichlorobenzamido)-5-[4-(phenyl-pyrimidin-2-ylamino)phenyl]pent-4-enoic acid sodium salt] | 
220 nM | CCN(c1ccc(/C=C/CC(NC(=O)c2c(Cl)cccc2Cl)C(=O)O)cc1)c1ncccn1 (stereo not drawn) [Example 24, (E)-2-(2,6-Dichlorobenzamido)-5-[4-(ethyl-pyrimidin-2-ylamino)phenyl]pent-4-enoic acid] | bioavailability [3]: 42.3%; clearance [3]: 12.6 mL/min/kg
 | CN(c1ccc(/C=C/CC(NC(=O)c2ccc(CNS(=O)(=O)c3cc(Cl)cc(Cl)c3)cc2)C(=O)O)cc1)c1ncccn1 (stereo not drawn) [Comparative Compound, 2-[4-((3,5-dichlorobenzensulfonylamino)methyl)benzoylamino]-5-(4-(methyl-pyrimidin-2-ylamino)phenyl)pento-4-ene acid, reference compound] | bioavailability [3]: 1.7%; clearance [3]: 21.4 mL/min/kg
88 nM | COc1ccc(CN(c2ccc(/C=C/CC(NC(=O)c3c(Cl)cccc3Cl)C(=O)O)cc2)c2ncccn2)cc1 (stereo not drawn) [Example 35, (E)-2-(2,6-Dichlorobenzamido)-5-[4-((4-methoxy-benzyl)-pyrimidin-2-ylamino)phenyl]pent-4-enoic acid sodium salt] | 
 | CCOC1(c2ccc(/C=C/CC(NC(=O)c3c(Cl)cccc3Cl)C(=O)O)cc2)CCOCC1 (stereo not drawn) [Example 6, (E)-2-(2,6-Dichlorobenzamido)-5-[4-(4-ethoxytetrahydropyran-4-yl)-phenyl]pent-4-enoic acid] | bioavailability [3]: 68.5%; clearance [3]: 19.8 mL/min/kg; IC50 [2]: 5630 nM
36 nM | COCCN(c1ccc(/C=C/CC(NC(=O)c2c(Cl)cccc2Cl)C(=O)O)cc1)c1ncccn1 (stereo not drawn) [Example 26, (E)-2-(2,6-Dichlorobenzamido)-5-[4-((2-methoxyethyl)-pyrimidin-2-ylamino)phenyl]pent-4-enoic acid sodium salt] | 
220 nM | O=C(NC(C/C=C/c1ccc(Oc2ncccn2)cc1)C(=O)O)c1c(Cl)cccc1Cl (stereo not drawn) [Example 12, (E)-2-(2,6-Dichlorobenzamido)-5-[4-(pyrimidin-2-yloxy)phenyl]pent-4-enoic acid] | 
 | O=C(NC(C/C=C/c1ccc(N(CC2CC2)c2ncccn2)cc1)C(=O)O)c1c(Cl)cccc1Cl (stereo not drawn) [Example 53, (E)-5-[4-(Cyclopropylmethyl-pyrimidin-2-ylamino)phenyl]-2-(2,6-dichlorobenzamido)pent-4-enoic acid sodium salt] | IC50 ([1]; Jurkat): 120 nM
41 nM | O=C(NC(C/C=C/c1ccc(N(Cc2ccc(O)cc2)c2ncccn2)cc1)C(=O)O)c1c(Cl)cccc1Cl (stereo not drawn) [Example 29, (E)-2-(2,6-Dichlorobenzamido)-5-[4-((4-hydroxy-benzyl)-pyrimidin-2-ylamino)phenyl]pent-4-enoic acid] | 
 | CC(C)CN(c1ccc(/C=C/CC(NC(=O)c2c(Cl)cccc2Cl)C(=O)O)cc1)c1ncccn1 (stereo not drawn) [Example 55, (E)-2-(2,6-Dichlorobenzamido)-5-[4-(isobutyl-pyrimidin-2-ylamino)phenyl]pent-4-enoic acid sodium salt] | IC50 ([1]; Jurkat): 420 nM
220 nM | COC1(c2ccc(/C=C/CC(NC(=O)c3c(Cl)cccc3Cl)C(=O)O)cc2)CCCOCC1 (stereo not drawn) [Example 10, (E)-2-(2,6-Dichlorobenzamido)-5-[4-(4-methoxyoxepan-4-yl)phenyl]pent-4-enoic acid sodium salt] | 
79 nM | O=C(NC(C/C=C/c1ccc(N(c2ncccn2)C2CCOCC2)cc1)C(=O)O)c1c(Cl)cccc1Cl (stereo not drawn) [Example 49, (E)-2-(2,6-Dichlorobenzamido)-5-[4-(pyrimidin-2-yl-(tetrahydro-pyran-4-yl)-amino)phenyl]pent-4-enoic acid sodium salt] | 
280 nM | Cc1cccc(Cl)c1C(=O)NC(C/C=C/c1ccc(N(C)c2ncccn2)cc1)C(=O)O (stereo not drawn) [Example 67, (E)-2-(2-Chloro-6-methylbenzamido)-5-[4-(methyl-pyrimidin-2-ylamino)phenyl]pent-4-enoic acid] | IC50 [2]: 30000 nM
 | COC(=O)C(C/C=C/c1ccc(N(CCC#N)c2ncccn2)cc1)NC(=O)c1c(F)cccc1F (stereo not drawn) [Example 70, (E)-5-[4-((2-Cyano-ethyl)-pyrimidin-2-yl-amino)-phenyl]-2-(2,6-difluorobenzamido)-pent-4-enoic acid methyl ester] | bioavailability [3]: 63.4%; clearance [3]: 8.87 mL/min/kg
890 nM | COc1cc(OC)nc(N(C)c2ccc(/C=C/CC(NC(=O)c3c(Cl)cccc3Cl)C(=O)O)cc2)n1 (stereo not drawn) [Example 45, (E)-2-(2,6-Dichlorobenzamido)-5-[4-((4,6-dimethoxy-pyrimidin-2-yl)-methyl-amino)phenyl]pent-4-enoic acid] | 
33 nM | O=C(NC(C/C=C/c1ccc(N(Cc2ccccn2)c2ncccn2)cc1)C(=O)O)c1c(Cl)cccc1Cl (stereo not drawn) [Example 61] | 
